# “Also recorded” adds a separate entry of the source.
# What was measured:
# [1] = system: etiolated Arabidopsis seedlings; assay: Triple response of etiolated seedlings; format: in vivo, Arabidopsis thaliana; settings: for triple response in etr1-3: 4-days-old etiolated etr1-3 seedlings, 2.5 μM MBZ or 10 μM ACC
# [2] = system: Ethylene Response Factor1 (ERF1); assay: Expression of ethylene response marker gene ERF1; format: in vivo, Arabidopsis thaliana; settings: root tissue, 2 hours, 10 μM MBZ or ACC (50 μM per legend)
# [3] = system: etiolated Col-0 seedlings; assay: Measurement of ethylene production by GC-MS; format: in vivo, Arabidopsis thaliana; settings: 3-days-old etiolated Col-0 seedlings, 10 μM
# Method: Measurement of ethylene production. […] These vials were incubated at 22° C. for 3 days under dark environment. 500-1000 μL sample of the headspace gas was sampled with an autosampler (TriPlus RSH, Thermo Scientific) and injected into a gas chromatograph (Trace 1310 GC, Thermo Scientific) that was equipped with a HP-PLOTQ column ([…], 320 μm, 20 μm) and a mass spectrometer (TSQ8000 Evo MS, Thermo Scientific), scanning from 25-27.5 m/z. Separations were carried out at 35° C. using He as the carrier gas. The area of the ethylene peak (RT: 4 min) was integrated using Thermo Xcalibur Qual Browser. A calibration curve was generated by varying the injection volume (100 μL, 250 μL, 500 μL, and 1000 μL) of a 10 ppm ethylene standard (in nitrogen), and sample results are expressed as concentrations calculated from linear regression of calibration samples.
# [4] = system: root cells of etiolated seedlings; assay: Root cell size by confocal microscopy (PI staining); format: in vivo, Arabidopsis thaliana; settings: 4-day-old etiolated seedlings, 2.5 μM MBZ or 10 μM ACC
# Source text: (§1) LaserMicroscopy. A Zeiss 710 confocal microscope with 20×, 40×, and 63× objectives were used to detect GFP and propidium iodide (PI) fluorescence. A Keyence BZ-X810 microscope with a 20× objective was used to detect bright field images and GFP fluorescence in FIG. 3B, FIG. 8B right panel, FIG. 9C, FIG. 9F.
# [5] = system: Arabidopsis thaliana roots; settings: for root elongation / root hair growth: 8-day-old seedlings, 1 μM MBZ or 10 nM IAA plates
# [6] = system: EIN3; assay: 35S-EIN3-GFP protein level in ein3eil1 background; format: in vivo, Arabidopsis thaliana; settings: 2 hours, 10 μM MBZ or 50 μM ACC
# Source text: as §1
# [7] = system: microtubules (TUB6-GFP); assay: Microtubule orientation in root tips of TUB6-GFP seedlings; format: in vivo, Arabidopsis thaliana; settings: 1 μM IAA or 50 μM MBZ
# Source text: as §1
# [8] = system: DR5-GFP V2; assay: DR5-GFP V2 auxin response reporter in roots; format: in vivo, Arabidopsis thaliana
# Source text: as §1
# [9] = target: T1, MAPK4 (Arabidopsis thaliana, UniProt Q39024); assay: In vitro kinase assay with non-radioactive ATP-γ-S; format: biochemical; settings: 0, 10, 100 μM MBZ
# T1 construct: 6xHis (N); made in house; host or cells: E. coli Rosetta 2 (DE3)pLysS
# T1 sequence (Q39024 1-376): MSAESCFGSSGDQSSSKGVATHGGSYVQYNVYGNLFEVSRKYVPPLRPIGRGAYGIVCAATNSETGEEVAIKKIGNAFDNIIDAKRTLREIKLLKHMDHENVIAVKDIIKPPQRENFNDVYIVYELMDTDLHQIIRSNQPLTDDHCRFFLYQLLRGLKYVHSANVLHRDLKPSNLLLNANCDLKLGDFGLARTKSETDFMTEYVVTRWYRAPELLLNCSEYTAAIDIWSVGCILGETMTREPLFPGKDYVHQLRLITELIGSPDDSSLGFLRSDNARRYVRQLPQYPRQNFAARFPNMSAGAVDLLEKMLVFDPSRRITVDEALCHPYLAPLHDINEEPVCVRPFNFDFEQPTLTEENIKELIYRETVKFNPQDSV
# Method: Protein purification. The CTR1 Kinase domain (540 aa-821 aa) (CTR1-KD) and MAPK4 were cloned into a modified pET28a with 6× His tag at their N-terminal. Proteins were expressed in Rosetta™ 2 (DE3)pLysS Competent Cells. Bacteria was cultured in 30 mL LB media containing 50 μg/mL kanamycin overnight at 37° C., 200 rpm. The culture was transferred into 1 L LB media with kanamycin. After the culture reached to 0.7 to 0.9 at OD 600 nm, 0.4 mM isopropylthiop-D-galactoside (IPTG) was added, and the culture was grown for 22 h at 20° C., 200 rpm. Cells were harvested by centrifugation at 4° C. for 10 mins at 3,000×g. The pellet was washed with 0.9% NaCl and resuspended in 40 mL lysis buffer (50 mM pH 7.5 Tris-HCl, 1 mM EDTA, 100 mM NaCl, 20% glycerol, EDTA-free protease inhibitor cocktail, 10 mM imidazole). […] Protein concentration was measured by their absorbance at 280 nm.
# In vitro kinase assay with non-radioactive ATP-7-S. The in vitro kinase assay followed the previous published method ([…]). […] The phosphorylation status of MBP, CTR1-KD and MPK4 were analyzed by western blot using Recombinant Anti-Thiophosphate ester antibody (Abcam, Cat. Ab92570, 1:5000) followed by Goat Anti-Rabbit IgG (H+L)-HRP Conjugate antibody (Bio-Rad, Cat. No. 170-6515, 1:5000). The MBP, CTR1-KD and MPK4 proteins loading amounts were measured by Coomassie Blue R250 staining.
# [10] = system: ARR5; assay: Expression of immediate-early cytokinin target gene ARR5; format: in vivo, Arabidopsis thaliana; settings: 10 μM MBZ, 3 h, 6 h or 12 hours
# [11] = system: IAA1, IAA29, GH3.2, GH3.3, and MAKR4; assay: Expression of marker genes of auxin signaling; format: in vivo, Arabidopsis thaliana; settings: 10 μM MBZ, 2 h
# [12] = target: hsMAPK14 (Homo sapiens, UniProt Q16539); settings: mammalian systems, Ariey-Bonnet et al., 2020; cited from earlier work
# Chain of hsMAPK14 (Q16539 whole entry): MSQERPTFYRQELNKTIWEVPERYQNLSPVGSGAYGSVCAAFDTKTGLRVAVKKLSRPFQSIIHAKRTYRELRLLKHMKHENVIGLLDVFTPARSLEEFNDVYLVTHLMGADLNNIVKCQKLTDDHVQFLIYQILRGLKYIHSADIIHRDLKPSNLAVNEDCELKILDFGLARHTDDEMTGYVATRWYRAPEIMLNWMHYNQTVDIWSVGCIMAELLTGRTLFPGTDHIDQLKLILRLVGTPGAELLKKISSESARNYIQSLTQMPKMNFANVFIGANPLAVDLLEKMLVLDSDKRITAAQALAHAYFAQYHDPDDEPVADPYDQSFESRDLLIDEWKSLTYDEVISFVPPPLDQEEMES
# [13] = system: Arabidopsis roots; assay: mRNA-seq of roots, differential expression and GO analysis; format: in vivo, Arabidopsis thaliana
# Method: mRNA-seq analysis. 14 d old seedlings on DMSO plates were transferred to 12 MS liquid plates with DMSO or 10 μM mebedazole treatment for 4 h, root tissues were collected for RNA extraction and RNA-seq.
# Read alignment and generation of counts. The TAIR10 genome file and annotation file were obtained from the Arabidopsis Information resource web site (arabidopsis.org). The An aligner, called the Splice Transcripts Alignments to Reference (STAR) version 2.7.0a^44, was used to align short reads in the FASTQ files. In order to use STAR, a STAR index was built using the following parameters:
# Then, short reads in the FASTQ files were aligned and gene counts were obtained using the following STAR command:
# A custom R script was used to combine counts per gene from count data produced from STAR cross all samples.
# Differential expression analysis. Differential expression of genes between treatments and control was determined using the R package, edgeR (version 3.36.0) (Robinson et al., 2010). The CPM (counts per million) function from edgeR was used to normalize the counts and differentially expressed genes (DEGs) were identified using glmLRT function from edgeR.
# Analysis of published Ethylene RNA-Seq. The fastq-dump utility from the Short Read Archive (SRA) Toolkit (v2.6.3) (github.com/ncbi/sra-tools) was used to download transcriptome libraries (SRA accession IDs: SRR648276, SRR648275, SRR648274, SRR648300, SRR648299, and SRR648298) from SRA database (ncbi.nlm.nih.gov/sra) (Leinonen et al., 2011). The color space sequencing data were converted to base-space sequencing data using Perl script ‘csfq2fq.pl’ (gist.github.com/pcantalupo/9c30709fe802c96ea2b3). The converted FASTQ files were aligned and analyzed using above methods.
# Statistical analysis. A two-sided Student's t-test was used for comparisons of two conditions. The comparison of meristem length, mature cell length, root length, GSA between multiple treatments or genotypes was performed by One-way ANOVA and post hoc Tukey testing. Detailed information was prepared in figure legends. Statistical significance of overlap between DEGs from MBZ treatment and ethylene treatment was assessed by hypergeometric distribution test. Hypergeometric test function in R was used to calculate statistical significance: • $ phyper(q−1, m, n-m, k, lower.tail=FALSE, log.p=FALSE) • q=the number of genes in common between two sets • m=the number of genes in Set 1; • n=the total number of genes in RNA-Seq counts table (33,602) • k=the number of genes in Set 2
# [14] = system: Arabidopsis lateral roots; assay: Time lapse of lateral root angle phenotyping after plate transfer; format: in vivo, Arabidopsis thaliana
# Method: Time lapse of lateral root angle phenotyping. […] Root phenotype images of these plates were acquired by CCD vertical scanners (EPSON Perfection V600 Photo, Seiko Epson CO., Nagano, Japan) every 10 mins over a period of 24 hours using the tool described (Ogura et al., 2022). Root length and lateral root angles were measured using Fiji.
# [15] = system: Arabidopsis roots; settings: 4 hours of ethylene treatment; cited from earlier work
# [16] = 1 μM MBZ, one week after germination
structure (smiles),measurement,setting,value
"NC1(C(=O)O)CC1 [ACC, 1-aminocy-clopropane-1-carboxylic acid]",triple response in etr1-3,[1],completely insensitive
same,transcript level of ERF,[2],strongly induced
same,ethylene production,[3],dramatically induced
same,mature cell size,[4],reduced
same,effect on root angle,[5]; ACC at certain concentrations (0.1-10 μM range),weak but distinct effect
same,35S-EIN3-GFP protein level,[6],dramatically induced
O=C(O)Cc1c[nH]c2ccccc12 [IAA],root elongation,[5],inhibited
same,root hair growth,[5],enhanced
same,orientation of tubulin in roots within 1 h,[7],significantly changed
"COC(=O)Nc1nc2ccc(C(=O)c3ccccc3)cc2[nH]1 [MBZ, Mebendazole]",triple response phenotype,"[1]; 3-day-old etiolated seedlings, 10 μM MBZ",significant triple response phenotype
same,triple response in etr1-3,[1],showed the typical triple response phenotype
same,triple response in ethylene insensitive mutants ein2-5 and ein3eil1,"[1]; MBZ (2.5 μM), etiolated seedlings",abolished; also recorded: didn't show a triple response
same,concentration sufficient to induce the triple response phenotype,[1]; dark environment,2.5 µM
same,transcript level of ERF,[2],strongly induced
same,DR5-GFP V2 expression within 3 hours compared to mock,"[8]; 10 μM MBZ, 3 h",no increased
same,"DR5-GFP V2 expression, long-term treatment",[8]; 7-day-old roots grown on 1 μM MBZ plates,induced
same,effect on MAPK4 kinase activity compared to CTR1,[9],much less pronounced
same,kinase activity of MPK4,[9]; concentration dependent,inhibited
same,ARR5 expression,[10],did not respond
same,ethylene production,[3],not detected
same,mature cell size,[4],reduced
same,expression of marker genes of auxin signaling,[11],did not show any significant change
same,activity on hsMAPK14,[12],inhibitor
same,decreased root length (in average reduced by),[5]; [16],37%
same,root hair initiation and elongation,[5]; [16],increased
same,root length of ein2-5 and ein3eil1 mutant plants,[5]; 1.2 μM MBZ,clearly not affected
same,root phenotype of Col-0,[5]; 1.2 μM MBZ,short roots and increased root hair development
same,"response of etr1-1 and etr1-3 ethylene receptor mutants (root length, GSA)",[5]; 1.2 μM MBZ plates,strongly responded
same,"lateral root angles of ctr1-1, ein2-5, and ein3eil1 plants","[5]; 2 to 3-weeks-old plants, 1.3 μM MBZ",insensitive
same,root elongation,[5],inhibited
same,root hair growth,[5],enhanced
same,lateral root angle,[5]; MBZ treatment,distinctly increased
same,plant growth and development,[5]; in vivo,strongly inhibited plant growth and development
same,lateral root gravitropic setpoint angle (GSA),[5]; two-week-old seedlings grown on 1 μM MBZ plates,approx. 70 °
same,GO enrichment of ethylene-activated signaling pathway (GO:0009873),"[13]; 10 μM MBZ, 4 hours",10.83 fold enrichment
same,GO enrichment of negative regulation of ethylene-activated signaling pathway (GO:0010105),"[13]; 10 μM MBZ, 4 hours",21.03 fold enrichment
same,number of differentially expressed genes (DEGs),[13]; 4 hours of MBZ treatment,1335 genes
same,DEGs overlapping with DEGs of 4 hours ethylene treatment,[13]; 4 hours of MBZ treatment vs published ethylene data,306 genes
same,common DEGs retaining directionality of expression change,"[13]; MBZ vs ethylene, 4 h",More than 90%
same,reversibility of effect on lateral root angles,"[14]; 1 μM MBZ, removal",fully reversible
same,time to change of GSA in time-lapse experiment,[14]; MBZ treatment,one to four
same,time until lateral root tips grow at a distinctly steeper angle upon removal from MBZ,"[14]; transfer from 1 μM MBZ back to control conditions, 5 lateral root tips",four
same,time until lateral root tips grow at a more horizontal angle,"[14]; transfer from DMSO to 1 μM MBZ medium, five lateral root tips",three
same,35S-EIN3-GFP protein level,[6],dramatically induced
C=C [ethylene],number of DEGs upon ethylene treatment (published data),[15],1397 genes

# Reference: patent US20250049032A1, “ETHYLENE SIGNALING ACTIVATOR MODULATES ROOT SYSTEM ARCHITECTURE” (Salk Institute for Biological Studies, priority 2021, published 2025)
